Experimental findings from PubChem BioAssay (NCI) are described below.

Test in all cases: NCI-60 cell line screen, 48 h
Assay [1] has as its system A549 NSCLC.
In assay [2] the test system is BT-549 breast.
The test system of assay [3] is CCRF-CEM leukemia.
Assay [4] relates to HCT-15 colon.
For assay [5], the system named is HOP-62 NSCLC.
Assay [6] relates to HS 578T breast.
For assay [7], the system named is IGROV1 ovarian.
Assay [8] relates to LOX IMVI melanoma.
The test system of assay [9] is M14 melanoma.
Assay [10] concerns MALME-3M melanoma.
Assay [11] deals with MCF7 breast.
The test system of assay [12] is MDA-MB-231 breast.
Assay [13] relates to MDA-MB-435.
For assay [14], the system named is NCI-H226 lung.
Assay [15] relates to OVCAR-4 ovarian.
For assay [16], the system named is PC-3 prostate.
Assay [17] has as its system RPMI-8226 leukemia.
Assay [18] has as its system SF-295 CNS.
Assay [19] concerns SNB-19 CNS.
Assay [20] has as its system SNB-75 CNS.

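Where inhibition never reached the appropriate level, the endpoint shown equals the highest concentration tested. Otherwise, values were interpolated linearly from a five-concentration, 48-hour dose response in 96-well plates. TGI is the concentration that stops growth completely.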

In the case of `CCCCn1c(C)c2c(c1C)C(=O)N(CC(O)CN1CCc3ccccc3C1)C2=O` (stereo not given), the TGI in [1], in assay [2], in assay [3], in [4], in [5] and in assay [6] was more than 100 µM throughout. The TGI in assay [7], in assay [8], in assay [9], in [10], in assay [11] and in [12] was more than 100 µM in each case. In addition, the TGI in [13], in assay [14], in [15], in assay [16], in assay [17] and in assay [18] was more than 100 µM each time. Further, the TGI in assay [19] and in assay [20] was more than 100 µM each time.

As to `O=c1c2c(-c3ccccc3)onc2n(-c2ccccc2)c(=O)n1-c1ccccc1`, the TGI was more than 100 µM in assay [1]; 39.5 µM in [2]; more than 100 µM in assay [3]; 39.1 µM in assay [4]; 54.9 µM in assay [5]; 89.8 µM in [6]. The TGI was 52.1 µM in assay [7]; more than 100 µM in [8]; 49.7 µM in assay [9]; 34.5 µM in assay [10]; more than 100 µM in [11]; more than 100 µM in [12]. For the same compound, the TGI is more than 100 µM in [13]; 71 µM in [14]; more than 100 µM in [15]; 82 µM in [16]; more than 100 µM in assay [17]; more than 100 µM in assay [18]. Moreover, the TGI in assay [19] is more than 100 µM; in [20], 84.2 µM.

As for `Cn1c(=O)c2c(no[n+]2[O-])c2ccccc21`, the TGI is more than 100 µM in assay [1]; 34.2 µM in [2]; 48.9 µM in [3]; 29.5 µM in [4]; 35.9 µM in [5]; 62.2 µM in [6]. The TGI in assay [7] was 31.4 µM; in assay [8] it was 31.4 µM; in [9], 25.3 µM; in [10] it was 29 µM; in assay [11] it was more than 100 µM; in assay [12] it was 48 µM. Also, the TGI in assay [13] amounted to 68.5 µM; in assay [14] it was 40.4 µM; in assay [15], 45.5 µM; in [16], 71.8 µM; in [17] it was 62 µM; in [18] it was 61.1 µM. For the same compound, the results for the TGI in [19] and in [20] were 84.2 µM and 35.9 µM, respectively.

For `CCCCCC(/C=C/C1CCC(=O)C1CC#C[Si](C)(C)C)OCc1ccccc1` (stereo not given), the TGI turned out to be 70.7 µM in assay [1]; 33.8 µM in [2]; 17.2 µM in assay [3]; 30.1 µM in assay [4]; 41.5 µM in assay [5]; 39.6 µM in assay [6]. The TGI in assay [7] amounted to 28.7 µM; in [8] it was 35.8 µM; in assay [9], 77.8 µM; in [10], 37.8 µM; in [11], 44 µM; in assay [12] it was 54.4 µM. Besides, the TGI in [13] was 41.7 µM; in [14], more than 94.7 µM; in assay [15] it was more than 71.8 µM; in assay [16], more than 64.1 µM; in [17] it was 44.3 µM; in assay [18] it was 39.8 µM. Besides, the TGI was more than 84.8 µM in assay [19] and 41.3 µM in assay [20].

Take `CC(C)(C)c1cc(C(=O)/C=C/C=C/c2ccccc2)cc(C(C)(C)C)c1O`: the TGI in assay [1] is 47.3 µM; in [2] it was 57.2 µM; in assay [3] it was 15.5 µM; in assay [4] it was more than 67.1 µM; in [5] it was more than 100 µM; in assay [6], more than 100 µM. Also, the TGI is more than 100 µM in assay [7]; 50.9 µM in assay [8]; 41.4 µM in assay [9]; more than 100 µM in [10]; more than 86.6 µM in assay [11]; 49 µM in assay [12]. The TGI in assay [13] was more than 70.4 µM; in assay [14], 77.2 µM; in assay [15] it was more than 100 µM; in assay [16] it was more than 79.9 µM; in assay [17], 29.9 µM; in assay [18] it was more than 100 µM. In addition, the TGI in [19] amounted to 77.8 µM; in assay [20], 67.2 µM.

For the compound `Cc1ccc(-c2cc(-c3ccc(Cl)cc3)nc(/N=C3\C(=O)N(CN4CCOCC4)c4ccc(Cl)cc43)n2)cc1`, the TGI in assay [1] was more than 100 µM; in assay [2], more than 100 µM; in [3], more than 100 µM; in assay [4], more than 100 µM; in [5], 51.8 µM; in assay [6], more than 100 µM. The TGI in assay [7] is 33.1 µM; in assay [8], more than 100 µM; in assay [9] it was more than 100 µM; in assay [10] it was more than 100 µM; in [11], 79.2 µM; in assay [12] it was more than 100 µM. For the same compound, the TGI is 65.9 µM in assay [13]; more than 100 µM in assay [14]; more than 100 µM in assay [15]; more than 100 µM in [16]; more than 100 µM in assay [17]; more than 100 µM in assay [18]. Besides, the TGI was more than 100 µM in assay [19] and 97.1 µM in assay [20].

Regarding `Nc1nc2c(ncn2Cc2ccc(CO)cc2)c(=O)[nH]1`, the TGI in assay [1], in assay [2], in [3], in assay [4], in [5] and in assay [6] was more than 100 µM in each case. The TGI in [7], in assay [8], in assay [9], in assay [10], in assay [11] and in [12] was more than 100 µM throughout. Also, the TGI in [13], in assay [14], in assay [15], in assay [16], in assay [17] and in assay [18] was more than 100 µM throughout. Also, the TGI in assay [19] and in assay [20] was more than 100 µM throughout.

In the case of `CCOC(=O)c1ccc(C(=O)/C(C#N)=C2\CCCN2C)[nH]1`, the TGI in assay [1], in assay [2], in assay [3], in [4], in assay [5] and in assay [6] was more than 100 µM throughout. Also, the TGI in assay [7], in assay [8], in [9], in assay [10], in [11] and in assay [12] was more than 100 µM in each case. The TGI in [13], in [14], in [15], in assay [16], in assay [17] and in assay [18] was more than 100 µM each time. The TGI in assay [19] and in assay [20] was more than 100 µM each time.

With `COc1ccc(-c2c(C#N)c(O)n(NS(=O)(=O)c3ccc(C)cc3)c(=O)c2C#N)cc1`, the TGI in [1], in assay [2], in [3], in assay [4], in [5] and in [6] was more than 100 µM throughout. For the same compound, the TGI in [7], in assay [8], in assay [9], in assay [10], in assay [11] and in [12] was more than 100 µM throughout. Besides, the TGI in assay [13] is more than 100 µM; in assay [14] it was more than 100 µM; in [15], more than 100 µM; in [16], more than 100 µM; in assay [17], 54.3 µM; in assay [18] it was more than 100 µM. Further, the TGI in assay [19] and in [20] was more than 100 µM throughout.

For `CC(C)(C)c1cc(C(CO)OCCOCCO)cc(C(C)(C)C)c1O` (stereo not given), the TGI in [1], in assay [2], in assay [3], in assay [4], in assay [5] and in assay [6] was more than 100 µM in each case. Also, the TGI in [7], in assay [8], in [9], in assay [10], in [11] and in assay [12] was more than 100 µM throughout. In addition, the TGI in [13], in assay [14], in assay [15], in [16], in assay [17] and in [18] was more than 100 µM throughout. The TGI in assay [19] and in [20] was more than 100 µM each time.

Take `CCOC(=O)c1cc(C2(O)CCN(CC(C)CC)C2=O)c(-c2cc(C)no2)[nH]1` (stereo not given): the TGI in assay [1], in assay [2], in [3], in assay [4], in assay [5] and in assay [6] was more than 100 µM in each case. The TGI in assay [7], in assay [8], in assay [9], in assay [10], in [11] and in [12] was more than 100 µM throughout. The TGI in assay [13], in assay [14], in [15], in assay [16], in assay [17] and in assay [18] was more than 100 µM each time. Further, the TGI in assay [19] and in [20] was more than 100 µM in each case.

Turning to `O=C(NS(=O)(=O)OCC(Cl)(Cl)Cl)SCCC(F)(F)C(F)(F)C(F)(F)C(F)(F)C(F)(F)C(F)(F)F`, the TGI in assay [1] was 94.6 µM; in assay [2] it was more than 100 µM; in [3], 44.5 µM; in [4], 47.4 µM; in assay [5] it was 72.4 µM; in assay [6], 42.1 µM. In addition, the TGI in assay [7] is more than 100 µM; in assay [8], 45.6 µM; in assay [9], 48.6 µM; in assay [10] it was 37.7 µM; in [11] it was 40.6 µM; in [12], 61.9 µM. Further, the TGI in assay [13] worked out at 55 µM; in [14], 70.7 µM; in [15] it was 31.8 µM; in [16] it was 32.4 µM; in assay [17], 40.5 µM; in assay [18], 38.9 µM. Moreover, the results for the TGI in [19] and in assay [20] were 36.2 µM and 64.6 µM, respectively.

`COc1cc(C2SCC(=O)N2c2ccc(Cl)c(Cl)c2)cc(OC)c1OC` (stereo not given): the TGI was more than 100 µM in assay [1]; 98 µM in [2]; 51.3 µM in assay [3]; more than 100 µM in assay [4]; more than 100 µM in [5]; more than 100 µM in assay [6]. Moreover, the TGI in assay [7], in assay [8], in [9], in [10], in assay [11] and in assay [12] was more than 100 µM throughout. The TGI in assay [13] was 34 µM; in assay [14] it was more than 79.4 µM; in [15] it was more than 100 µM; in assay [16], more than 100 µM; in assay [17], more than 78.6 µM; in assay [18], more than 100 µM. The TGI in assay [19] and in assay [20] was more than 100 µM in each case.

Regarding `N#C/C(N)=C(\C#N)NC=NCc1ccccc1`, the TGI in [1], in assay [2], in [3], in assay [4], in assay [5] and in assay [6] was more than 100 µM in each case. Also, the TGI in [7], in assay [8], in [9], in assay [10], in [11] and in [12] was more than 100 µM in each case. In addition, the TGI in assay [13], in [14], in [15], in assay [16], in assay [17] and in assay [18] was more than 100 µM in each case. Also, the TGI in [19] and in [20] was more than 100 µM each time.
